Measurements: patent US20200278355A1, “CONJUGATED PROTEINS AND USES THEREOF” (THE SCRIPPS RESEARCH INSTITUTE, priority 2017, published 2020)

Target: T1, NR0B1 (Homo sapiens, UniProt P51843)
T1 construct: H460 cells or H460 cells expressing luciferase in a 10 cm plate were incubated with indicated compounds; endogenous in cells; host or cells: H460 (NSCLC, KEAP1-mutant)
T1 sequence (P51843 1-470): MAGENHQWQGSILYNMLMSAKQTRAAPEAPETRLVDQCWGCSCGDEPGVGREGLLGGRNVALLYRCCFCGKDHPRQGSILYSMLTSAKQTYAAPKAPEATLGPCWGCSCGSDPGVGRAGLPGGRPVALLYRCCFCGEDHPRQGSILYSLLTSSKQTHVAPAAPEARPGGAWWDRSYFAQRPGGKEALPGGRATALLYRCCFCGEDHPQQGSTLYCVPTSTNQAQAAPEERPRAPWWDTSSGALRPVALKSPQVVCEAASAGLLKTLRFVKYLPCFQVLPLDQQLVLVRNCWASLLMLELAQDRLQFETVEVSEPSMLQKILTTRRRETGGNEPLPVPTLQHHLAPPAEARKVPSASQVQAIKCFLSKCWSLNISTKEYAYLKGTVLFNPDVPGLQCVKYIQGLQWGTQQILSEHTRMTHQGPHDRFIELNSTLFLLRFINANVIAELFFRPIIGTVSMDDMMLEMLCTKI
Experiment: ABPP-SILAC BPK-29yne competition in H460 cells: NR0B1
Assay type: cell-based
Settings: 20 μM
Procedure: Isotopically labeled H460 cell lines were generated as described above. Light and heavy cells were treated with compounds (20 μM) or DMSO, respectively, for 3 h, followed by labeling with the BPK-29yne (5 μM) for 30 min. Cells were washed once ice-cold PBS and lysed in 1% Triton 100-X dissolved in PBS with protease inhibitors (Sigma) by sonication. Lysate was adjusted to 1.5 mg ml^−1 in 500 μL. Samples were conjugated by CuAAC to Biotin-PEG4-azide (5 μL of 10 mM stocks in DMSO, final concentration=100 μM). CuAAC “click” mix contained TCEP, TBTA ligand and CuSO4 as detailed for isoTOP-ABPP sample preparation. Samples were further processed as detailed in: isoTOP-ABPP streptavidin enrichment and isoTOP-ABPP trypsin TEV digestion with the following exception: after overnight incubation at 37° C. with trypsin, tryptic digests were separated from the beads with Micro Bio-Spin columns (Bio-Rad) by centrifugation (1,000×g, 1 min). Beads were rinsed once with water (200 μL) and combined with tryptic digests. […]
The MS2 spectra data were extracted and searched using RAW Convertor and ProLuCID algorithm as described in isoTOP-ABPP peptide and protein quantification. […] Ratios of heavy/light (DMSO/test compound) peaks were calculated using in-house CIMAGE software. […] The mean R values and standard deviation for multiple biological experiments were calculated from the average ratios from each replicate. […]

O=C(c1ccc(N2CCOCC2)cc1)N1CCCC(N(Cc2ccccc2)C(=O)CCl)CC1 (stereo not shown) [BPK-29, N-benzyl-2-chloro-N-(1-(4-morpholinobenzoyl)azepan-4-yl)acetamide]
BPK-29-competed BPK-29yne analysis: Yes (Competed defined as showing R value ≥ 2.5 at 20 μM of test compound)
